In this experiment the target is T1, HSD17B13 enzyme (Homo sapiens, UniProt Q7Z5P4).
T1 construct: His; made in house; host or cells: E. coli
T1 sequence (Q7Z5P4 20-300): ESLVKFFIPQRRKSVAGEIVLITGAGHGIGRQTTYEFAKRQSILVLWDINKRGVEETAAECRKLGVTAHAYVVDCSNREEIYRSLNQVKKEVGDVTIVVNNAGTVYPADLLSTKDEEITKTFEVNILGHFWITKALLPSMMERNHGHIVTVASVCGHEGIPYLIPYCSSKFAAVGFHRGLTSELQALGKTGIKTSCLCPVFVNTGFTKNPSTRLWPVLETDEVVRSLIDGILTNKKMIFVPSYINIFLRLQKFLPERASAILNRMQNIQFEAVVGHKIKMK
The experiment can be described thus: NADH detection assay (fluorescence based LTB3 assay) for HSD17B13 activity. The following applies: substrate 25 μM LTB3, 3 mM NAD+, 125 nM HSD17B13 enzyme, 1 hour at 26.5° C. The experiment is classed as biochemical. As to the method: Example A: NADH Detection Assay for Evaluation of HSD17ß13 Activity and Identification of Inhibitors
The fluorescence based Leukotriene B3 (LTB3) assay monitors the fluorescence of NADH, which is generated from NAD+ during the dehydrogenation of the substrate LTB3. The reactions were performed in a 384-well plates (Greiner; #655076) in a 20 μl reaction volume containing the following reagents (final concentrations): 25 μM LTB3 (Cayman; #20109); 3 mM NAD+ (Sigma; #N0623); 125 nM HSD17B13 enzyme (in-house; E. coli expressed His-tagged, purified, soluble protein); […] potassium phosphate buffer, pH 7.4; and 1% DMSO. Reactions were initiated by co-addition of NAD+ and enzyme, and monitored for 1 hour at 26.5° C. Generation of NADH was measured as the fluorescence signal (Excitation at 340 nm and Emission at 445 nm) at 1 hour minus the baseline fluorescence at t=0. Fluorescence signals in the absence of LTB3 (negative control values), were subtracted from all values so that the results reflected substrate-dependent production of NADH. NADH standards were included to allow the conversion of relative fluorescence units into rates of enzyme activity. Enzyme activity in the presence of test compounds was expressed as a percentage of the uninhibited enzyme activity, and plotted versus inhibitor concentration. Non-linear regression was performed using a four-parameter logistic model and GraphPad Prism software (GraphPad Software, La Jolla, CA). Ten concentrations of inhibitor were tested (in the range of 30 μM-2.5 nM), and two independent assessments were performed at each concentration.

Where only a bound is given, the exact number is not on record here.

`COc1cc(Oc2cccc(-c3ccc4c(c3)NS(=O)(=O)C4)n2)ccc1F` [Example 60, 6-(6-(4-fluoro-3-methoxyphenoxy)pyridin-2-yl)-1,3-dihydrobenzo[c]isothiazole 2,2-dioxide]: the IC50 is > 30 µM.
In the case of `CC(=O)Nc1nc2cc(-c3cccc(Oc4ccc(F)c(O)c4)n3)ccc2s1` [Example 61, N-(5-(6-(4-fluoro-3-hydroxyphenoxy)pyridin-2-yl)benzo[d]thiazol-2-yl) acetamide] it was > 30 µM; in that of `N#Cc1ccc(Oc2ccc(F)c(O)c2)nc1N1CCOCC1` [Example 62, 6-(4-fluoro-3-hydroxyphenoxy)-2-(morpholin-4-yl)pyridine-3-carbonitrile], > 30 µM.
`O=C(NC1CC1)c1cccc(-c2cccc(Oc3ccc(F)c(O)c3)n2)c1` [Example 63, N-cyclopropyl-3-(6-(4-fluoro-3-hydroxyphenoxy)pyridin-2-yl)benzamide]: the half-maximal inhibitory concentration (IC50) lay in the range of 10 to 30 µM.
For `Oc1cc(Oc2cccc(-c3ccc(OC(F)(F)F)c(Cl)c3)n2)ccc1F` [Example 66, 5-((6-(3-chloro-4-(trifluoromethoxy)phenyl)pyridin-2-yl)oxy)-2-fluorophenol], the IC50 is ≤ 5 µM.
Then `Oc1cc(Oc2cccc(-c3ccc4c(c3)OCO4)n2)ccc1F` [Example 67, 5-((6-(benzo[d][1,3]dioxol-5-yl)pyridin-2-yl)oxy)-2-fluorophenol], with ≤ 5 µM.
As for `O=C(O)c1cccc(-c2cccc(Oc3ccc(F)c(O)c3)n2)c1` [Example 68, 3-(6-(4-fluoro-3-hydroxyphenoxy)pyridin-2-yl)benzoic acid], the IC50 was > 30 µM.
In the case of `CNC(=O)c1cc(Oc2ccc(F)c(O)c2)nc(-c2cccc(O)c2F)c1` [Example 69, 2-(4-fluoro-3-hydroxyphenoxy)-6-(2-fluoro-3-hydroxyphenyl)-N-methylpyridine-4-carboxamide] it was 10 to 30 µM; in that of `CNC(=O)c1cc(Oc2ccc(F)c(OC)c2)nc(-c2cccc(O)c2F)c1` [Example 70, 2-(2-fluoro-3-hydroxyphenyl)-6-(4-fluoro-3-methoxyphenoxy)-N-methylpyridine-4-carboxamide], > 30 µM; in that of `Oc1cc(Oc2cccc(N3CCOCC3)n2)ccc1F` [Example 72, 2-fluoro-5-{[6-(morpholin-4-yl)pyridin-2-yl]oxy}phenol], > 30 µM.
In the case of `O=c1ccc(-c2cccc(Oc3ccc(F)c(O)c3)n2)cn1C(F)F` [Example 73, 1′-(difluoromethyl)-6-(4-fluoro-3-hydroxyphenoxy)-[2,3′-bipyridin]-6′(1′H)-one] it was > 30 µM; in that of `COc1cccc(F)c1-c1cccc(Oc2ccc(F)c(O)c2)n1` [Example 74, 2-fluoro-5-((6-(2-fluoro-6-methoxyphenyl)pyridin-2-yl)oxy)phenol], > 30 µM; in that of `CS(=O)(=O)c1cccc(-c2cccc(Oc3ccc(F)c(O)c3)n2)c1` [Example 75, 2-fluoro-5-((6-(3-(methylsulfonyl)phenyl)pyridin-2-yl)oxy)phenol], > 30 µM.
As to `NS(=O)(=O)c1ccc(-c2cccc(Oc3ccc(F)c(O)c3)n2)cc1` [Example 76, 4-(6-(4-fluoro-3-hydroxyphenoxy)pyridin-2-yl)benzene sulfonamide], the concentration for half-maximal inhibition (IC50) fell in the range of 10 to 30 µM.
With `CS(=O)(=O)c1ccc(-c2cccc(Oc3ccc(F)c(O)c3)n2)cc1` [Example 77, 2-fluoro-5-((6-(4-(methylsulfonyl)phenyl)pyridin-2-yl)oxy)phenol], the half-maximal inhibitory concentration (IC50) fell in the range of 10 to 30 µM.
In turn, `Oc1cc(Oc2cccc(-c3c(F)cccc3F)n2)ccc1F` [Example 78, 5-((6-(2,6-difluorophenyl)pyridin-2-yl)oxy)-2-fluorophenol] returned a half-inhibitory concentration (IC50) of 5 to 10 µM.
On to `CC(=O)Nc1cccc(-c2cccc(Oc3ccc(F)c(O)c3)n2)c1` [Example 79, N-(3-(6-(4-fluoro-3-hydroxyphenoxy)pyridin-2-yl)phenyl)acetamide], for which the IC50 is ≤ 5 µM.
`CNC(=O)c1ccc(-c2cccc(Oc3ccc(F)c(O)c3)n2)cc1` [Example 80, 4-(6-(4-fluoro-3-hydroxyphenoxy)pyridin-2-yl)-N-methylbenzamide]: the IC50 was ≤ 5 µM.
Take `CNC(=O)c1cccc(-c2cccc(Oc3ccc(F)c(O)c3)n2)c1` [Example 81, 3-(6-(4-fluoro-3-hydroxyphenoxy)pyridin-2-yl)-N-methylbenzamide]: the IC50 is ≤ 5 µM.
On to `Oc1cc(Oc2cccc(-c3ccc(Cl)cc3)n2)ccc1F` [Example 82, 5-{[6-(4-chlorophenyl)pyridin-2-yl]oxy}-2-fluorophenol], for which the concentration for half-maximal inhibition (IC50) is ≤ 5 µM.
As to `Oc1cc(Oc2cccc(-c3ccccc3Cl)n2)ccc1F` [Example 83, 5-{[6-(2-chlorophenyl)pyridin-2-yl]oxy}-2-fluorophenol], the half-maximal inhibitory concentration (IC50) is ≤ 5 µM.
Take `Oc1cc(Oc2cccc(-c3ccc(F)cc3F)n2)ccc1F` [Example 84, 5-{[6-(2,4-difluorophenyl)pyridin-2-yl]oxy}-2-fluorophenol]: the concentration for half-maximal inhibition (IC50) was in the range of 5 to 10 µM.
The compound `Oc1cc(Oc2cccc(-c3ccc(F)c(Cl)c3)n2)ccc1F` [Example 85, 5-{[6-(3-chloro-4-fluorophenyl)pyridin-2-yl]oxy}-2-fluorophenol] registered an IC50 of 5 to 10 µM.
Then `Oc1cc(Oc2cccc(-c3cccc(Cl)c3F)n2)ccc1F` [Example 86, 5-{[6-(3-chloro-2-fluorophenyl)pyridin-2-yl]oxy}-2-fluorophenol], with ≤ 5 µM; and `COc1ccc(-c2cccc(Oc3ccc(F)c(O)c3)n2)c(F)c1` [Example 87, 2-fluoro-5-{[6-(2-fluoro-4-methoxyphenyl)pyridin-2-yl]oxy}phenol], with ≤ 5 µM.
As to `Oc1cc(Oc2cccc(-c3cc(F)ccc3F)n2)ccc1F` [Example 88, 5-{[6-(2,5-difluorophenyl)pyridin-2-yl]oxy}-2-fluorophenol], the IC50 was ≤ 5 µM.
In the case of `Oc1cc(Oc2cccc(-c3cc(F)cc(F)c3)n2)ccc1F` [Example 89, 5-{[6-(3,5-difluorophenyl)pyridin-2-yl]oxy}-2-fluorophenol], the half-inhibitory concentration (IC50) was ≤ 5 µM.
Regarding `Oc1cc(Oc2cccc(-c3ccccc3F)n2)ccc1F` [Example 90, 2-fluoro-5-((6-(2-fluorophenyl)pyridin-2-yl)oxy)phenol], the IC50 is ≤ 5 µM.
On to `N#Cc1ccc(-c2cccc(Oc3ccc(F)c(O)c3)n2)c(F)c1` [Example 92, 3-fluoro-4-(6-(4-fluoro-3-hydroxyphenoxy)pyridin-2-yl)benzonitrile], for which the IC50 is > 30 µM.
Regarding `O=S(=O)(Nc1cccc(Oc2cccc(-c3cccc(O)c3F)n2)c1)C1CC1` [Example 93, N-(3-{[6-(2-fluoro-3-hydroxyphenyl)pyridin-2-yl]oxy}phenyl)cyclopropane-sulfonamide], the IC50 is > 30 µM.
Take `CS(=O)(=O)NCc1cccc(Oc2cccc(-c3cccc(O)c3F)n2)c1` [Example 94, N-[(3-{[6-(2-fluoro-3-hydroxyphenyl)pyridin-2-yl]oxy}phenyl)methyl]methane-sulfonamide]: the half-inhibitory concentration (IC50) is > 30 µM.
In the case of `COc1cccc(-c2cccc(Oc3cccc(NS(=O)(=O)C4CC4)c3)n2)c1F` [Example 95, N-(3-{[6-(2-fluoro-3-methoxyphenyl)pyridin-2-yl]oxy}phenyl)cyclopropane-sulfonamide] it was > 30 µM.
Take `COc1cccc(-c2cccc(Oc3cccc(CNS(C)(=O)=O)c3)n2)c1F` [Example 96, N-[(3-{[6-(2-fluoro-3-methoxyphenyl)pyridin-2-yl]oxy}phenyl)methyl]methane-sulfonamide]: the half-inhibitory concentration (IC50) was > 30 µM.
`Oc1cccc(-c2cccc(Oc3ccc(F)c(O)c3)n2)c1` [Example 97, 2-fluoro-5-{[6-(3-hydroxyphenyl)pyridin-2-yl]oxy}phenol] displayed an IC50 of 10 to 30 µM.
For the compound `Oc1cc(Oc2cccc(-c3ccc(C(F)(F)F)cc3)n2)ccc1F` [Example 98, 2-fluoro-5-((6-(4-(trifluoromethyl)phenyl)pyridin-2-yl)oxy)phenol], the IC50 was in the range of 10 to 30 µM.
As to `COc1ccccc1-c1cccc(Oc2ccc(F)c(O)c2)n1` [Example 99, 2-fluoro-5-((6-(2-methoxyphenyl)pyridin-2-yl)oxy)phenol], the IC50 was 10 to 30 µM.
In turn, `Oc1cc(Oc2cccc(-c3ccc(C(F)(F)F)c(Cl)c3)n2)ccc1F` [Example 100, 5-((6-(3-chloro-4-(trifluoromethyl)phenyl)pyridin-2-yl)oxy)-2-fluorophenol] gave an IC50 of 10 to 30 µM.
The compound `Oc1cc(Oc2cccc(-c3ccc(Cl)c(C(F)(F)F)c3)n2)ccc1F` [Example 101, 5-((6-(4-chloro-3-(trifluoromethyl)phenyl)pyridin-2-yl)oxy)-2-fluorophenol] gave an IC50 of 10 to 30 µM.

For orientation: IC50 means the concentration at which inhibition is half-maximal. A higher IC50 goes with weaker potency.

(Values after patent US12643858B2 (Inipharm, Inc., priority 2020, dated 2026).)
